Test results: patent US4863969A, “Treatment of premalignant lesions and certain malignant tumors” (priority 1985, dated 1989)

Columns and labels:
[1] = system: squamous metaplasia of the vaginal epithelium; assay: Antimetaplastic activity in ovarectomized rats (hormone-induced squamous metaplasia, vaginal smear); format: in vivo, female Holtzmann rats
Procedure: (C) The antimetaplastic activity of compound Ia was determined in rats according to the following method. Female Holtzmann rats weighing approximately 100 g were ovarectomized under Thiogenal narcosis after an adaptation period of 8 days and were used in the experiment after a further 14 days. In each case two animals were placed in a cage and had free access to feed which contained approximately 2000 IU of analytically determined vitamin A. Prior to the oral administration of the test compound the animals were treated subcutaneously each day for 6 successive days with the hormone mixture of 1 μg of estradiol benzoate and 250 μg of testosterone propionate dissolved in 0.1 ml of sesame oil. The parenteral hormone administration led to the formation of a clear granular stage in the vaginal smear, i.e. a squamous metaplasia. 2 days after the oral administration of the test substance the result of the reaction was again read off on the vaginal epithelium. The area method according to Behrens and Karber was employed to calculate the average effective dosages.

[2] = Tolerability and toxicity; format: in vivo; details: given intraperitoneally and given orally
[3] = Rydell et al. 1982; Kistler 1981; Loeliger et al. 1980; cited from earlier work

| SMILES | Relative activity (antimetaplastic) ([1]; all-trans vitamin A acid = 100%) [%] | Antimetaplastic effect (average effective / protective dosage) ([1]; oral, read 2 days after administration, area method of Behrens and Karber) [µg] | Toxicity [2] | Biological activity in preliminary screening tests [3] |
| --- | --- | --- | --- | --- |
| CC1=C(/C=C/C(C)=C/C=C/C(C)=C/C(=O)O)C(C)(C)CCC1 [all-trans vitamin A acid, reference compound] | 100 | 35.7 |  |  |
| CC(=Cc1ccccc1)c1ccc2c(c1)C(C)(C)CCC2(C)C [compound of formula I, 1,2,3,4-tetrahydro-1,1,4,4-tetramethyl-6-(alpha-methylstyryl)naphthalene] |  |  | relatively non-toxic | biologically inactive |
